Laboratory results taken from ChEMBL document CHEMBL3885881, “DrugMatrix”.

Species on record: Rattus norvegicus
Experiment: DrugMatrix - Regimen: Daily Repeat
Type: toxicity, organism-based, Sprague-Dawley
Parameters: regimen Daily Repeat, gender Male, age 6-8 weeks
Details: in vivo, po, […], route oral GAVAGE; for ABSOLUTE BASOPHIL / ABSOLUTE EOSINOPHIL / ABSOLUTE LYMPHOCYTE / ABSOLUTE MONOCYTE / ABSOLUTE SEGMENTED NEUTROPHIL / BASOPHIL / EOSINOPHIL / ERYTHROCYTE COUNT / HEMATOCRIT / HEMOGLOBIN / LEUKOCYTE COUNT / LYMPHOCYTE / MEAN CORPUSCULAR HEMOGLOBIN / MEAN CORPUSCULAR HEMOGLOBIN CONCENTRATION / MEAN CORPUSCULAR VOLUME / MONOCYTE / NEUTROPHIL / NUCLEATED RED BLOOD CELLS / PLATELET COUNT: tissue Blood; for ALANINE AMINOTRANSFERASE / ALBUMIN / ALKALINE PHOSPHATASE / ASPARTATE AMINOTRANSFERASE / BLOOD UREA NITROGEN / CARBON DIOXIDE / CHLORIDE / CHOLESTEROL / CREATINE PHOSPHOKINASE / CREATININE / GLUCOSE / LACTATE DEHYDROGENASE / LIPASE / PHOSPHORUS / POTASSIUM / SODIUM / TOTAL BILIRUBIN / TOTAL PROTEIN / URIC ACID: tissue Plasma
[1] = 130 mg/kg, dose level Low, time 7 day
[2] = 500 mg/kg, 72 h, dose level High, time 3 day
[3] = 500 mg/kg, dose level High, time 7 day

## CCOC(=O)C(C)(C)Oc1ccc(Cl)cc1 [CLOFIBRATE]
[1]
  ABSOLUTE BASOPHIL: 0 CELLS/uL
  ABSOLUTE EOSINOPHIL: 21.17 CELLS/uL
  ABSOLUTE LYMPHOCYTE: 6867.67 CELLS/uL
  ABSOLUTE MONOCYTE: 104.17 CELLS/uL
  ABSOLUTE SEGMENTED NEUTROPHIL: 707 CELLS/uL
  BASOPHIL: 0%
  EOSINOPHIL: 0.17%
  ERYTHROCYTE COUNT: 5.45 x10E6/uL
  HEMATOCRIT: 34%
  HEMOGLOBIN: 13.12 G/DL
  LEUKOCYTE COUNT: 7.7 x10E3/uL
  LYMPHOCYTE: 90.17%
  MEAN CORPUSCULAR HEMOGLOBIN: 24.08 pg
  MEAN CORPUSCULAR HEMOGLOBIN CONCENTRATION: 38.57 G/DL
  MEAN CORPUSCULAR VOLUME: 62.45 fL
  MONOCYTE: 1.17%
  NEUTROPHIL: 8.5%
  NUCLEATED RED BLOOD CELLS: 0 /100WBC
  PLATELET COUNT: 1220 x10E3/uL
  ALANINE AMINOTRANSFERASE: 65.83 u/L
  ALBUMIN: 4.38 G/DL
  ALKALINE PHOSPHATASE: 251.5 u/L
  ASPARTATE AMINOTRANSFERASE: 76.33 u/L
  BLOOD UREA NITROGEN: 14.33 mg/dL
  CARBON DIOXIDE: 30.5 mmol/L
  CHLORIDE: 104.5 MEQ/L
  CHOLESTEROL: 60.5 mg/dL
  CREATINE PHOSPHOKINASE: 323.5 u/L
  CREATININE: 0.21 mg/dL
  GLUCOSE: 149.17 mg/dL
  LACTATE DEHYDROGENASE: 102.17 u/L
  LIPASE: 9.67 u/L
  PHOSPHORUS: 10.73 mg/dL
  POTASSIUM: 5.56 MEQ/L
  SODIUM: 146.55 MEQ/L
  TOTAL BILIRUBIN: 0.1 mg/dL
  TOTAL PROTEIN: 6.07 G/DL
  URIC ACID: 0.98 mg/dL
[2]
  ABSOLUTE BASOPHIL: 0 CELLS/uL
  ABSOLUTE EOSINOPHIL: 0 CELLS/uL
  ABSOLUTE LYMPHOCYTE: 11363.33 CELLS/uL
  ABSOLUTE MONOCYTE: 222.5 CELLS/uL
  ABSOLUTE SEGMENTED NEUTROPHIL: 1180.83 CELLS/uL
  BASOPHIL: 0%
  EOSINOPHIL: 0%
  ERYTHROCYTE COUNT: 5.54 x10E6/uL
  HEMATOCRIT: 33.68%
  HEMOGLOBIN: 13.67 G/DL
  LEUKOCYTE COUNT: 12.77 x10E3/uL
  LYMPHOCYTE: 89%
  MEAN CORPUSCULAR HEMOGLOBIN: 24.72 pg
  MEAN CORPUSCULAR HEMOGLOBIN CONCENTRATION: 40.7 G/DL
  MEAN CORPUSCULAR VOLUME: 60.78 fL
  MONOCYTE: 1.67%
  NEUTROPHIL: 9.33%
  NUCLEATED RED BLOOD CELLS: 0 /100WBC
  PLATELET COUNT: 1039.67 x10E3/uL
  ALANINE AMINOTRANSFERASE: 88.83 u/L
  ALBUMIN: 4.27 G/DL
  ALKALINE PHOSPHATASE: 424.33 u/L
  ASPARTATE AMINOTRANSFERASE: 162 u/L
  BLOOD UREA NITROGEN: 18 mg/dL
  CARBON DIOXIDE: 26.83 mmol/L
  CHLORIDE: 103.5 MEQ/L
  CHOLESTEROL: 32.5 mg/dL
  CREATINE PHOSPHOKINASE: 350.5 u/L
  CREATININE: 0.19 mg/dL
  GLUCOSE: 152.17 mg/dL
  LACTATE DEHYDROGENASE: 380 u/L
  LIPASE: 9.17 u/L
  PHOSPHORUS: 9.13 mg/dL
  POTASSIUM: 6.05 MEQ/L
  SODIUM: 141.43 MEQ/L
  TOTAL BILIRUBIN: 0.2 mg/dL
  TOTAL PROTEIN: 5.38 G/DL
  URIC ACID: 1.42 mg/dL
[3]
  ABSOLUTE BASOPHIL: 0 CELLS/uL
  ABSOLUTE EOSINOPHIL: 10.67 CELLS/uL
  ABSOLUTE LYMPHOCYTE: 6850.83 CELLS/uL
  ABSOLUTE MONOCYTE: 72 CELLS/uL
  ABSOLUTE SEGMENTED NEUTROPHIL: 433.17 CELLS/uL
  BASOPHIL: 0%
  EOSINOPHIL: 0.17%
  ERYTHROCYTE COUNT: 5.25 x10E6/uL
  HEMATOCRIT: 32.12%
  HEMOGLOBIN: 12.58 G/DL
  LEUKOCYTE COUNT: 7.37 x10E3/uL
  LYMPHOCYTE: 92.67%
  MEAN CORPUSCULAR HEMOGLOBIN: 23.97 pg
  MEAN CORPUSCULAR HEMOGLOBIN CONCENTRATION: 39.23 G/DL
  MEAN CORPUSCULAR VOLUME: 61.12 fL
  MONOCYTE: 1%
  NEUTROPHIL: 6.17%
  NUCLEATED RED BLOOD CELLS: 0 /100WBC
  PLATELET COUNT: 961.33 x10E3/uL
  ALANINE AMINOTRANSFERASE: 91 u/L
  ALBUMIN: 4.27 G/DL
  ALKALINE PHOSPHATASE: 368.83 u/L
  ASPARTATE AMINOTRANSFERASE: 131.17 u/L
  BLOOD UREA NITROGEN: 15.67 mg/dL
  CARBON DIOXIDE: 32 mmol/L
  CHLORIDE: 102 MEQ/L
  CHOLESTEROL: 52.67 mg/dL
  CREATINE PHOSPHOKINASE: 300.5 u/L
  CREATININE: 0.21 mg/dL
  GLUCOSE: 154.17 mg/dL
  LACTATE DEHYDROGENASE: 169.67 u/L
  LIPASE: 10.17 u/L
  PHOSPHORUS: 10.03 mg/dL
  POTASSIUM: 5.38 MEQ/L
  SODIUM: 143.68 MEQ/L
  TOTAL BILIRUBIN: 0.1 mg/dL
  TOTAL PROTEIN: 5.75 G/DL
  URIC ACID: 0.85 mg/dL
